Structures can show the parent of a compound that is named as a salt.
Experiment: Solid-state chemical stability under different storage conditions (liquid chromatography)
Type: physicochemical
Conditions: for Stability of solid state compound, 0 Days (%): liquid chromatography
Experimental: The HPLC conditions were as follows:
Configuration of test solution: appropriate amount of sample was dissolved and diluted with a diluent (0.03 mol/L phosphate buffer-acetonitrile (80:20)) to make 1 mg/mL solution.
Chromatographic conditions: according to the high performance liquid chromatography (Chinese Pharmacopoeia 2020 version of the four general 0512) test, using octadecyl-bonded silica gel (Agilent Eclipse Plus C18, 4.6 mm*250 mm, 5.0 μm, P/N for 959990-902 or a chromatographic column with equivalent performance) as a filler; 0.03 mol/L phosphate buffer (4.08 g of potassium dihydrogen phosphate was dissolved in 1000 ml of water and shaken well) was used as mobile phase A and acetonitrile as mobile phase B at a flow rate of 1 ml/min, the column temperature was 30° C., the detection wavelength was 220 nm, the injection volume was 10 ul, and the sample plate was controlled to 8° C. and running for 65 min. Gradient elution was performed according to the following table: […]
Configuration of test solution: appropriate amount of the product was dissolved and diluted with a diluent (0.1% phosphoric acid-acetonitrile (80:20)) to make 1 mg/mL solution.
Chromatographic conditions: according to the high performance liquid chromatography (Chinese Pharmacopoeia 2020 version of the four general 0512) test, using octadecyl bonded silica gel (Agilent Eclipse Plus C18, 4.6 mm*250 mm, 5.0 μm, P/N 959990-902 or a chromatographic column with equivalent performance) as a filler; 0.1% phosphate buffer (1 ml of phosphoric acid in 1000 ml of water and shake well) as mobile phase A, acetonitrile as mobile phase B, flow rate of 1 ml/min, column temperature of 30° C., detection wavelength of 220 nm, injection volume of 10 ul, running for 48 minutes. Gradient elution was performed according to the following table: […]

| Structure (SMILES) | Stability of solid state compound, 0 Days (%) (40° C., 75% RH) | Stability of solid state compound, 5 Days (%) (40° C., 75% RH) | Stability of solid state compound, 10 Days (%) (40° C., 75% RH) | Stability of solid state compound, 30 Days (%) (40° C., 75% RH) | Stability of solid state compound, 0 Days (%) (25° C., 60% RH) | Stability of solid state compound, 10 Days (%) (25° C., 60% RH) | Stability of solid state compound, 30 Days (%) (25° C., 60% RH) | Stability of solid state compound, 60 Days (%) (40° C., 75% RH, 60 days) |
| --- | --- | --- | --- | --- | --- | --- | --- | --- |
| CN[C@@]1(c2cccc(C#N)c2)CCC[C@](C)(O)C1=O.Cl [Compound 64, 3-((1R, 3S)-3-hydroxy-3-methyl-1-methylamino-2-oxocyclohexyl)benzonitrile hydrochloride] | 99.88 | 99.88 | 99.89 | 99.85 |  |  |  |  |
| CN[C@]1(c2ccc(C(F)(F)F)cc2)CCC[C@@](C)(O)C1=O.Cl [Compound 75, (2R,6S)-2-hydroxy-2-methyl-6-methylamino-6-(4-(trifluoromethyl)phenyl)cyclohexan-1-one hydrochloride] | 99.85 |  | 99.78 | 99.77 |  |  |  |  |
| CNC1(c2cccc(OC(F)(F)F)c2)CCCC(C)(O)C1=O.Cl (centres unmarked) [Compound 67, 2-hydroxy-2-methyl-6-methylamino-6-(3-(trifluoromethoxy)phenyl)cyclohexan-1-one hydrochloride] | 99.82 |  | 99.73 | 99.57 |  |  |  |  |
| Cl.NC1(c2cccc(F)c2F)CCCC(O)C1=O (centres unmarked) [Comparative compound 12, reference compound] | 97.16 |  |  | 94.59 |  |  |  |  |
| CCN[C@@]1(c2ccc(C(F)(F)F)cc2)CCC[C@@H](O)C1=O.Cl [Comparative compound 9, reference compound] |  |  |  |  | 98.2 | 96.8 | 61 |  |
| CN[C@@]1(c2ccccc2Cl)CCC[C@](C)(O)C1=O.Cl [Compound 69, (2R,6S)-2-(2-chlorophenyl)-6-hydroxy-6-methyl-2-methylaminocyclohexan-1-one hydrochloride] | 98.36 |  | 98.43 | 98.34 |  |  |  |  |
| CC1(O)CCCC(N)(c2c(F)cc(F)cc2F)C1=O (centres unmarked) [Compound 44, 2-amino-6-hydroxy-6-methyl-2-(2,4,6-trifluorotoluene)cyclohexan-1-one hydrochloride] | 98.45 | 98.53 |  | 98.35 |  |  |  |  |
| CN[C@@]1(c2ccc(C(F)(F)F)cc2)CCC[C@@H](O)C1=O.Cl [Comparative compound 8, reference compound] | 98.4 | 73.0 |  |  |  |  |  |  |
| CC(=O)N[C@@]1(c2ccc(C(F)(F)F)cc2)CCC[C@](C)(O)C1=O [Compound 37, N-((1R,3S)-3-hydroxy-3-methyl-2-oxo-1-(4-(trifluoromethyl)phenyl)cyclohexyl)acetamide] |  |  |  |  | 99.69 | 99.65 | 99.69 |  |
| CN(C)[C@@]1(c2ccc(C(F)(F)F)cc2)CCC[C@@](C)(O)C1=O.Cl [Compound 72, (2R,6R)-2-dimethylamino-6-hydroxy-6-methyl-2-(4-(trifluoromethyl)phenyl)cyclohexan-1-one hydrochloride] | 99.69 | 99.66 | 99.62 | 99.61 |  |  |  |  |
| Cl.NC1(c2cccc(OC(F)(F)F)c2F)CCCC(O)C1=O (centres unmarked) [Comparative compound 14, reference compound] | 98.58 |  |  | 93.96 |  |  |  |  |
| CNC1(c2c(F)cc(F)cc2F)CCCC(C)(O)C1=O.Cl (centres unmarked) [Compound 58, 2-hydroxy-2-methyl-6-methylamino-6-(2,4,6-trifluorotoluene)cyclohexan-1-one hydrochloride] | 99.34 |  | 99.12 | 99.14 |  |  |  |  |
| CNC1(c2cccc(OC(F)(F)F)c2F)CCCC(C)(O)C1=O.Cl (centres unmarked) [Compound 56, 2-(2-fluoro-3-(trifluoromethoxy)phenyl)-6-hydroxy-6-methyl-2-(methylamino)cyclohexan-1-one hydrochloride] | 99.61 |  |  | 99.50 |  |  |  |  |
| CC1(O)CCCC(N)(c2cccc(F)c2F)C1=O.Cl (centres unmarked) [Compound 48, 2-amino-2-(2,3-difluorophenyl)-6-hydroxy-6-methylcyclohexan-1-one hydrochloride] | 99.25 | 99.28 | 99.28 | 99.17 |  |  |  |  |
| CNC1(c2cccc(C#N)c2)CCCC(C)(O)C1=O.Cl (centres unmarked) [Compound 63, 3-(3-hydroxy-3-methyl-1-methylamino-2-oxocyclohexyl)benzonitrile hydrochloride] | 99.67 | 99.66 | 99.66 | 99.66 |  |  |  |  |
| CC1(O)CCCC(N)(c2cccc(C#N)c2)C1=O.Cl (centres unmarked) [Compound 47, 3-(1-amino-3-hydroxy-3-methyl-2-oxocyclohexyl)benzonitrile hydrochloride] | 98.89 | 98.86 |  | 98.86 |  |  |  |  |
| CNC1(c2cccc(OC(F)(F)F)c2)CCCC(O)C1=O.Cl (centres unmarked) [Comparative compound 11, reference compound] | 98.15 | 87.8 | 75.44 |  |  |  |  |  |
| Cl.N#Cc1cccc(C2(N)CCCC(O)C2=O)c1 (centres unmarked) [Comparative compound 7, reference compound] | 98.1 | 87.5 |  |  |  |  |  |  |
| CN[C@@]1(c2ccccc2Cl)CCC[C@@](C)(O)C1=O.Cl [Compound 70, (2R,6R)-2-(2-chlorophenyl)-6-hydroxy-6-methyl-2-methylaminocyclohexan-1-one hydrochloride] | 97.84 |  | 97.84 | 97.82 |  |  |  |  |
| CC(=O)N[C@@]1(c2ccc(C(F)(F)F)cc2)CCC[C@@H](O)C1=O [Comparative compound 10, reference compound] |  |  |  |  | 99.77 | 99.69 | 97.51 |  |
| Cl.N[C@]1(c2ccc(C(F)(F)F)cc2)CCC[C@H](O)C1=O [Comparative compound 2, reference compound] | 99.48 |  | 97.11 | 94.26 |  |  |  | 89.97 |
| Cl.NC1(c2c(F)cc(F)cc2F)CCCC(O)C1=O (centres unmarked) [Comparative compound 13, reference compound] | 98.31 |  | 97.05 | 96.04 |  |  |  |  |
| CC1(O)CCCC(N)(c2cccc(OC(F)(F)F)c2F)C1=O (centres unmarked) [Compound 43, 2-amino-2-(2-fluoro-3-(trifluoromethoxy)phenyl)-6-hydroxy-6-methylcyclohexan-1-one hydrochloride] | 98.73 |  |  | 98.75 |  |  |  |  |

— patent publication US20250177324A1, “A[…], AND PREPARATION METHOD THEREFOR AND USE THEREOF” (SHANGHAI ZHIGEN PHARMACEUTICAL & TECHNOLOGY CO. LTD., priority 2022, published 2025)
